Results published in patent US20150353495A1 (PORTOLA PHARMACEUTICALS, INC., priority 2010, published 2015).

Columns and labels:
Assay type in all cases: biochemical
JAK1 = target: T1, JAK1 (Homo sapiens, UniProt P23458); assay: Z'-LYTE kinase assay JAK1
T1 construct: 5 μl of catalytic domain recombinant Kinase enzyme+Tyr peptide substrate (Invitrogen, CA); purchased Invitrogen
Procedure, shortened: (§1)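 Read-out is FRET fluorescence between coumarin and fluorescein on a Tyr6 peptide, lost when the development protease cleaves unphosphorylated substrate. Kinase reaction used recombinant catalytic domain with ATP, 1 h at room temperature, 1% DMSO.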

JAK2 = target: T2, JAK2 (Homo sapiens, UniProt O60674); assay: Z'-LYTE kinase assay JAK2
T2 construct: 5 μl of catalytic domain recombinant Kinase enzyme+Tyr peptide substrate (Invitrogen, CA); purchased Invitrogen
Procedure, shortened: as §1

JAK3 = target: T3, JAK3 (Homo sapiens, UniProt P52333); assay: Z'-LYTE kinase assay JAK3
T3 construct: 5 μl of catalytic domain recombinant Kinase enzyme+Tyr peptide substrate (Invitrogen, CA); purchased Invitrogen
Procedure, shortened: as §1

TYK2 = target: T4, TYK2 (Homo sapiens, UniProt P29597); assay: Z'-LYTE kinase assay TYK2
T4 construct: 5 μl of catalytic domain recombinant Kinase enzyme+Tyr peptide substrate (Invitrogen, CA); purchased Invitrogen
T4 sequence (P29597 897-1176 limits assumed): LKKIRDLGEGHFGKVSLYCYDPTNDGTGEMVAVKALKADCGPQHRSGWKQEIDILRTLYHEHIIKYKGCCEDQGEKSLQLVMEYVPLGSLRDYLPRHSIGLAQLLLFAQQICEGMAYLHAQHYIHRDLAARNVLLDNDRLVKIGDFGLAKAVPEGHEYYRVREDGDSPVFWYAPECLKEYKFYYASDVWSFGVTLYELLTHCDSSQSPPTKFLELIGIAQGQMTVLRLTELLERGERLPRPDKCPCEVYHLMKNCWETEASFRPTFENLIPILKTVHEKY
Protocol: JAK and TYK2 tyrosine phosphorylation activity is measured using the Z′-LYTE™ Technology developed by Invitrogen Corporation (Carlsbad, Calif.). For JAK1, JAK2 and JAK3 the Z′-LYTE™ Kinase Assay Kit-Tyr6 Peptide (part number PV4122) was used. For TYK2 the Z′-LYTE™ Kinase Assay Kit-Tyr6 Peptide (part number PV3192) was used. The Z′-LYTE™ biochemical assay employs a fluorescence resonance energy transfer (FRET) coupled-enzyme format and is based on the differential sensitivity of phosphorylated and non-phosphorylated peptides to proteolitic cleavage. The assay uses a synthetic peptide substrate that is labelled with a donor fluorophore (coumarin) and an acceptor fluorophore (fluorescein) that make up a FRET pair. In the primary reaction (the Kinase Reaction), the kinase transfers the γ-phosphate of ATP to a single tyrosine residue on the substrate, while the presence of a kinase inhibitor in the primary reaction suppresses phosphorylation. In the secondary reaction (the Development Reaction), a site-specific protease (the Development Reagent) is added. The development buffer quenches the Kinase Reaction, while the protease recognizes and cleaves non-phosphorylated Z′-LYTE™ peptide substrate. Cleavage disrupts FRET between the donor and acceptor fluorophores on the non-phosphoryleted substrate, while uncleaved, phosphorylated substrate maintains FRET.
To test the ability of candidate molecules to inhibit JAK tyrosine phosphorylation activity, molecules are reconstituted in 100% DMSO and serially diluted 1:10 in polypropylene v-bottom microtiter plates. The candidate molecules are then diluted 1:25 into kinase buffer and 2.5 μl transferred into duplicate wells of a 384 well low volume black microtiter assay plate (Corning, USA). The final DMSO concentration in the assay is 1%. The kinase reaction contains 2.5 μl of a candidate molecule, 5 μl of catalytic domain recombinant Kinase enzyme+Tyr peptide substrate (Invitrogen, CA) and 2.5 μl ATP (Invitrogen, CA). The kinase reaction is allowed to procede for 1 hour at room temperature. The protease reaction is initiated by the addition of 5 μl Development Reagent (Invitrogen, CA). After 1 hour incubation at room temperature the fluorescence is measured using a FlexStation plate reader (Molecular Devices, Sunnyvale, Calif.). The reader settings used are as follows: Fluorescence mode, endpoint, top read, excitation 400 nm, emission 445 nm and 520 nm, Auto Cutoff 435 nm and 515 nm, PMT sensitivity high, 6 reads per well Inhibition of JAK kinase activity is calculated as the percent phosphorylation of substrate in the presence of inhibitor compared to the percent phosphorylation of substrate in the absence of inhibitor. IC50's were derived using Xlfit 4.3 (IDBS, UK), 4 parameter logistic model 205: Y=(A+4B-A)/(1+((C/x)AD)))).

T1 sequence (P23458 875-1153 limits assumed): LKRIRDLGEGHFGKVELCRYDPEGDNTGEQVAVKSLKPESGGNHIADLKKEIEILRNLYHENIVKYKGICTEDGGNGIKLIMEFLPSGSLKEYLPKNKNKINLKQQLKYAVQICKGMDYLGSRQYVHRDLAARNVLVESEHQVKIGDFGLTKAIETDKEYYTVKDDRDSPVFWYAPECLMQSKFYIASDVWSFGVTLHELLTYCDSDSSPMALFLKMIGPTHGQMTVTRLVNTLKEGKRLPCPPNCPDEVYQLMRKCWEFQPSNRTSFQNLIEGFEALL
T2 sequence (O60674 849-1124 limits assumed): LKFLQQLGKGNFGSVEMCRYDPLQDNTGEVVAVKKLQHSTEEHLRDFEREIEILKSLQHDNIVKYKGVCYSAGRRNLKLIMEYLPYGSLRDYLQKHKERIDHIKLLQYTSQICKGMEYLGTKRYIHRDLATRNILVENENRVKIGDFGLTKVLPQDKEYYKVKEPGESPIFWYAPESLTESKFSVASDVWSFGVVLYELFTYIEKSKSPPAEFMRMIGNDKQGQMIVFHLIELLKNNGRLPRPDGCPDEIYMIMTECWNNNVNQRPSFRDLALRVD
T3 sequence (P52333 822-1111 limits assumed): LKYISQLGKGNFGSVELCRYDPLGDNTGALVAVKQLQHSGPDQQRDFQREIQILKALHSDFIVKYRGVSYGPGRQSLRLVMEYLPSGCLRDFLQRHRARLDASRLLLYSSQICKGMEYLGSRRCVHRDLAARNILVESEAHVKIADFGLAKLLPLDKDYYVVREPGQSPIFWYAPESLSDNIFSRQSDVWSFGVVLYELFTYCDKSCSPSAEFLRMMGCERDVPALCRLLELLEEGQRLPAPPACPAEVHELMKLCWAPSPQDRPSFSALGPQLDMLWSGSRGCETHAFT

SMILES: CC(=O)Nc1cccc(Nc2cc(NCc3cccs3)c(C(N)=O)cn2)c1 [Example 222, 6-(3-acetamidophenylamino)-4-(thiophen-2-ylmethylamino)nicotinamide]
- IC50 (JAK1): 100 to 1000 nM
- IC50 (JAK2): 100 to 1000 nM
- IC50 (JAK3): 1 to 10 nM
- IC50 (TYK2): 10 to 100 nM

SMILES: CC(=O)N1CCN(c2ccc(Nc3cc(NC(C)C)c(C(N)=O)cn3)cc2)CC1 [Example 234, 6-(4-(4-acetylpiperazin-1-yl)phenylamino)-4-(isopropylamino)nicotinamide]
- IC50 (JAK1): > 1000 nM
- IC50 (JAK2): > 1000 nM
- IC50 (JAK3): 100 to 1000 nM
- IC50 (TYK2): 100 to 1000 nM

SMILES: CC(=O)N1CCN(c2ccc(Nc3cc(NCC(C)C)c(C(N)=O)cn3)cc2)CC1 [Example 235, 6-(4-(4-acetylpiperazin-1-yl)phenylamino)-4-(isobutylamino)nicotinamide]
- IC50 (JAK1): 100 to 1000 nM
- IC50 (JAK2): 100 to 1000 nM
- IC50 (JAK3): 10 to 100 nM
- IC50 (TYK2): 10 to 100 nM

SMILES: CC(=O)N1CCN(c2ccc(Nc3cc(NCC4CC4)c(C(N)=O)cn3)cc2)CC1 [Example 238, 6-(4-(4-acetylpiperazin-1-yl)phenylamino)-4-(cyclopropylmethylamino)nicotinamide]
- IC50 (JAK1): > 1000 nM
- IC50 (JAK2): 100 to 1000 nM
- IC50 (JAK3): 100 to 1000 nM
- IC50 (TYK2): 100 to 1000 nM

SMILES: CC(=O)N1CCN(c2ccc(Nc3cc(NC4CCCC4)c(C(N)=O)cn3)cc2)CC1 [Example 239, 6-(4-(4-acetylpiperazin-1-yl)phenylamino)-4-(cyclopentylamino)nicotinamide]
- IC50 (JAK1): 100 to 1000 nM
- IC50 (JAK2): 100 to 1000 nM
- IC50 (JAK3): 10 to 100 nM
- IC50 (TYK2): 10 to 100 nM

SMILES: CC(=O)N1CCN(c2ccc(Nc3cc(NCC4CCC4)c(C(N)=O)cn3)cc2)CC1 [Example 243, 6-(4-(4-acetylpiperazin-1-yl)phenylamino)-4-(cyclobutylmethylamino)nicotinamide]
- IC50 (JAK1): 100 to 1000 nM
- IC50 (JAK2): 100 to 1000 nM
- IC50 (JAK3): 10 to 100 nM
- IC50 (TYK2): 10 to 100 nM

SMILES: CC(=O)N1CCN(c2ccc(Nc3cc(NCc4ccc(F)cc4)c(C(N)=O)cn3)cc2)CC1 [Example 252, 6-(4-(4-acetylpiperazin-1-yl)phenylamino)-4-(4-fluorobenzylamino)nicotinamide]
- IC50 (JAK1): > 1000 nM
- IC50 (JAK2): 100 to 1000 nM
- IC50 (JAK3): 10 to 100 nM
- IC50 (TYK2): > 1000 nM

SMILES: CC(=O)N1CCN(c2ccc(Nc3cc(NC4Cc5ccccc5C4)c(C(N)=O)cn3)cc2)CC1 [Example 253, 6-(4-(4-acetylpiperazin-1-yl)phenylamino)-4-(2,3-dihydro-1H-inden-2-ylamino)nicotinamide]
- IC50 (JAK1): > 1000 nM
- IC50 (JAK2): 100 to 1000 nM
- IC50 (JAK3): 100 to 1000 nM
- IC50 (TYK2): 100 to 1000 nM

SMILES: CC(=O)N1CCN(c2ccc(Nc3cc(NCc4ccc5c(c4)OCO5)c(C(N)=O)cn3)cc2)CC1 [Example 254, 6-(4-(4-acetylpiperazin-1-yl)phenylamino)-4-(benzo[d][1,3]dioxol-5-ylmethylamino)nicotinamide]
- IC50 (JAK1): > 1000 nM
- IC50 (JAK2): 100 to 1000 nM
- IC50 (JAK3): 10 to 100 nM
- IC50 (TYK2): > 1000 nM

SMILES: CC(=O)N1CCC[C@H](CNc2cc(Nc3ccc(C(=O)N4CCCC4)cc3)ncc2C(N)=O)C1 [Example 265, (R)-4-((1-acetylpiperidin-3-yl)methylamino)-6-(4-(pyrrolidine-1-carbonyl)phenylamino)nicotinamide]
- IC50 (JAK1): > 1000 nM
- IC50 (JAK2): 100 to 1000 nM
- IC50 (JAK3): 10 to 100 nM
- IC50 (TYK2): 100 to 1000 nM

SMILES: Cc1cc(Nc2cc(NCc3cncc(F)c3)c(C(N)=O)cn2)ccc1C(=O)N(C)C [Example 297]
- IC50 (JAK1): 100 to 1000 nM
- IC50 (JAK2): 10 to 100 nM
- IC50 (JAK3): 1 to 10 nM
- IC50 (TYK2): 100 to 1000 nM

SMILES: NC(=O)c1cnc(Nc2cccc(OCCN3CCCC3)c2)cc1NC1(c2ccccc2)CC1 [Example 363, 4-(1-phenylcyclopropylamino)-6-(3-(2-(pyrrolidin-1-yl)ethoxy)phenylamino)nicotinamide]
- IC50 (JAK1): > 1000 nM
- IC50 (JAK2): 100 to 1000 nM
- IC50 (JAK3): 10 to 100 nM
- IC50 (TYK2): > 1000 nM

SMILES: CS(=O)(=O)N1CCN(c2ccc(Nc3cc(NC4(c5ccccc5)CC4)c(C(N)=O)cn3)cc2)CC1 [Example 364, 6-(4-(4-(methylsufonly)piperazin-1-yl)phenylamino)-4-(1-phenylcyclopropylamino)nicotinamide]
- IC50 (JAK1): > 1000 nM
- IC50 (JAK2): 100 to 1000 nM
- IC50 (JAK3): 10 to 100 nM
- IC50 (TYK2): > 1000 nM

SMILES: CN(C)C(=O)COc1cccc(Nc2cc(NC3(c4ccccc4)CC3)c(C(N)=O)cn2)c1 [Example 365, 6-(3-(2-(dimethylamino)-2-oxoethoxy)phenylamino)-4-(1-phenylcyclopropylamino)nicotinamide]
- IC50 (JAK1): > 1000 nM
- IC50 (JAK2): > 1000 nM
- IC50 (JAK3): 10 to 100 nM
- IC50 (TYK2): > 1000 nM

SMILES: CN(C)C(=O)COc1ccc(Nc2cc(NC3(c4ccccc4)CC3)c(C(N)=O)cn2)cc1 [Example 366, 6-(4-(2-(dimethylamino)-2-oxoethoxy)phenylamino)-4-(1-phenylcyclopropylamino)nicotinamide]
- IC50 (JAK1): > 1000 nM
- IC50 (JAK2): 100 to 1000 nM
- IC50 (JAK3): 10 to 100 nM
- IC50 (TYK2): > 1000 nM

SMILES: NC(=O)c1cnc(Nc2cccc(N3CCNCC3)c2)cc1NC1(c2ccccc2)CC1 [Example 367, 4-(1-phenylcyclopropylamino)-6-(3-(piperazin-1-yl)phenylamino)nicotinamide]
- IC50 (JAK1): > 1000 nM
- IC50 (JAK2): 100 to 1000 nM
- IC50 (JAK3): 10 to 100 nM
- IC50 (TYK2): > 1000 nM

SMILES: NC(=O)c1cnc(Nc2ccc(N3CCOCC3)cc2)c(Cl)c1NCc1cccc(F)c1 [Example 377, 5-chloro-4-(3-fluorobenzylamino)-6-(4-morpholinophenylamino)nicotinamide]
- IC50 (JAK1): > 1000 nM
- IC50 (JAK2): > 1000 nM
- IC50 (JAK3): 100 to 1000 nM
- IC50 (TYK2): > 1000 nM

SMILES: N#CCOc1ccc(Nc2cc(NCc3ccccc3)c(C(N)=O)cn2)cc1 [Example 384]
- IC50 (JAK1): 100 to 1000 nM
- IC50 (JAK2): 100 to 1000 nM
- IC50 (JAK3): 1 to 10 nM
- IC50 (TYK2): > 1000 nM

SMILES: N#CCCc1ccc(Nc2cc(NCc3ccccc3)c(C(N)=O)cn2)cc1 [Example 386]
- IC50 (JAK1): 100 to 1000 nM
- IC50 (JAK2): 100 to 1000 nM
- IC50 (JAK3): 1 to 10 nM
- IC50 (TYK2): 100 to 1000 nM

SMILES: COc1cc(Nc2cc(NCc3ccccc3)c(C(N)=O)cn2)ccc1C(=O)N(C)C [Example 436, 4-(benzylamino)-6-(4-(dimethylcarbamoyl)-3-methoxyphenylamino)nicotinamide]
- IC50 (JAK1): > 1000 nM
- IC50 (JAK2): 100 to 1000 nM
- IC50 (JAK3): 1 to 10 nM
- IC50 (TYK2): 100 to 1000 nM

SMILES: CN(C)C(=O)c1ccc(Nc2cc(NCc3ccccc3)c(C(N)=O)cn2)cc1Cl [Example 437, 4-(benzylamino)-6-(3-chloro-4-(dimethylcarbamoyl)phenylamino)nicotinamide]
- IC50 (JAK1): > 1000 nM
- IC50 (JAK2): 100 to 1000 nM
- IC50 (JAK3): 1 to 10 nM
- IC50 (TYK2): 100 to 1000 nM

SMILES: Cc1cc(Nc2cc(NCc3ccccc3)c(C(N)=O)cn2)ccc1C(=O)N(C)C [Example 438, 4-(benzylamino)-6-(4-(dimethylcarbamoyl)-3-methylphenylamino)nicotinamide]
- IC50 (JAK1): 100 to 1000 nM
- IC50 (JAK2): 10 to 100 nM
- IC50 (JAK3): 1 to 10 nM
- IC50 (TYK2): 100 to 1000 nM

SMILES: CC(=O)N1CCC[C@H](CNc2cc(Nc3ccc(C(=O)N(C)C)c(C)c3)ncc2C(N)=O)C1 [Example 443]
- IC50 (JAK1): > 1000 nM
- IC50 (JAK2): 100 to 1000 nM
- IC50 (JAK3): 1 to 10 nM
- IC50 (TYK2): 100 to 1000 nM

SMILES: Cc1cc(Nc2cc(NCc3ccccc3)c(C(N)=O)cn2)ccc1C(=O)N1CCCC1 [Example 446, 4-(benzylamino)-6-(3-methyl-4-(pyrrolidine-1-carbonyl)phenylamino)nicotinamide]
- IC50 (JAK1): 100 to 1000 nM
- IC50 (JAK2): 10 to 100 nM
- IC50 (JAK3): 1 to 10 nM
- IC50 (TYK2): 100 to 1000 nM
